Our source for the AC50 values is patent publication US20250171438A1 (Agios Pharmaceuticals, Inc., priority 2022, published 2025).

Molecules are shown by their SMILES. Like-named read-outs stand apart in the source and are kept apart here. A value given as a limit tells only on which side of the number the result lay.

The experiment has as its target T1, human PAH with the R408W mutation (Homo sapiens, UniProt P00439, R408W).
T1 construct: expressed in transfected cells
T1 sequence (P00439 1-452 R408W): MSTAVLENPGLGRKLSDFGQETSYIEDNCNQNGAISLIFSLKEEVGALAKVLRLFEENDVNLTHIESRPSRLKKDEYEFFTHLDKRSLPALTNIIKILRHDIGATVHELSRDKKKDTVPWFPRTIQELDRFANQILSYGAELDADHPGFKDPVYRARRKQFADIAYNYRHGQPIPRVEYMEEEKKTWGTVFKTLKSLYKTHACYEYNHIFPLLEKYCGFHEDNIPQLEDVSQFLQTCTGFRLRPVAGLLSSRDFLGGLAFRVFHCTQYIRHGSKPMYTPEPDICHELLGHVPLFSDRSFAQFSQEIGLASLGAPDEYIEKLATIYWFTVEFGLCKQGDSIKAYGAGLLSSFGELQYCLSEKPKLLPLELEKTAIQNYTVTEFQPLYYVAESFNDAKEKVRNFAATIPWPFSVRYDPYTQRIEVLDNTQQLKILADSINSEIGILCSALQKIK
Nature of the experiment: Cell Based Phenylalanine Flux Assay. As to conditions: 13C-Tyrosine by LC-MS, average where tested multiple times. Also noted: scale not given here.

Where [1] appears, read: A375 cells expressing human R408W PAH, 24 hrs with compound, read-out: AC50.
Setting [2] is: AC50, A375 cells expressing human R408W PAH, 24 hrs with compound.
Where [3] appears, read: A375 cells expressing human R408W PAH, 24 hrs with compound.
The mark [4] stands for this setting: A375 cells expressing human R408W PAH, 24 hrs compound incubation, read-out: AC50.

In the case of `Nc1cnc(N2CCc3[nH]cnc3C2c2nc3ccccc3s2)nc1` (stereo not shown), the AC50 under setting [1] fell in the range of 1 to 5 µM.
Same read-out and setting: the figure for `O=C(c1oc(-c2ccccn2)nc1-c1ccccc1)N1CCc2[nH]cnc2C1c1nc2ccccc2s1` (stereo not shown) is 1 to 5 µM; for `Cn1ncc(C(=O)N2CCc3[nH]cnc3C2c2nc3c(F)cccc3s2)c1N` (stereo not shown) it is more than 5 µM.
Same read-out and setting: the figure for `O=C(c1cnco1)N1CCc2[nH]cnc2C1c1nc2c(F)cccc2s1` (stereo not shown) is 1 to 5 µM.
For `Cc1nnc(C(=O)N2CCc3[nH]cnc3C2c2nc3ccc(Cl)cc3[nH]2)s1` (stereo not shown) [listing 1 of 2 here], the AC50 under setting [2] was more than 5 µM.
In the case of `Cc1nnc(C(=O)N2CCc3[nH]cnc3C2c2nc3ccc(Cl)cc3[nH]2)s1` (stereo not shown) [listing 2 of 2 here], the AC50 under setting [2] was in the range of 1 to 5 µM.
With `O=C(Cc1cnco1)N1CCc2[nH]cnc2[C@@H]1c1nc2ccccc2s1` (single isomer, unassigned), the half-maximal activity concentration (AC50) under setting [1] was more than 5 µM.
On the same count and under the same terms, the figure for `Cc1nnc(CC(=O)N2CCc3[nH]cnc3[C@@H]2c2nc3c(F)cccc3s2)s1` (single isomer, unassigned) is more than 5 µM.
Same read-out and setting: the figure for `O=C(Cc1nccs1)N1CCc2[nH]cnc2[C@@H]1c1nc2ccc(Br)cc2[nH]1` (single isomer, unassigned) is more than 5 µM.
Still for that read-out and setting: the figure for `CC(=O)Cn1ncc(C(=O)N2CCc3[nH]cnc3[C@@H]2c2nc3c(F)cccc3s2)c1Cl` (single isomer, unassigned) is more than 5 µM.
In the case of `Cn1nc(C2CC2)cc1C(=O)N1CCc2[nH]cnc2[C@@H]1c1nc2c(F)cccc2s1` (single isomer, unassigned), the half-maximal activity concentration (AC50) under setting [1] was more than 5 µM.
As for `Cc1noc(C(=O)N2CCc3[nH]cnc3[C@@H]2c2nc3ccccc3s2)n1` (single isomer, unassigned), the concentration at half-maximal activity (AC50) under setting [1] was more than 5 µM.
On the same count and under the same terms, the figure for `Cn1ncc(C(=O)N2CCc3[nH]cnc3[C@@H]2c2nc3c(F)cccc3s2)c1Br` (single isomer, unassigned) is more than 5 µM.
Same read-out and setting: the figure for `Cn1ncnc1C(=O)N1CCc2[nH]cnc2[C@@H]1c1nc2c(F)cccc2s1` (single isomer, unassigned) is more than 5 µM; for `Cc1nc(C(C)(C)S(C)(=O)=O)oc1C(=O)N1CCc2[nH]cnc2[C@@H]1c1nc2c(F)cccc2s1` (single isomer, unassigned) it is more than 5 µM; for `COCCNc1nnc(C(=O)N2CCc3[nH]cnc3[C@@H]2c2nc3ccccc3s2)o1` (single isomer, unassigned) it is more than 5 µM.
Turning to `O=C(c1cnco1)N1CCc2[nH]cnc2[C@@H]1c1nc2cc(F)ccc2s1` (single isomer, unassigned), the AC50 under setting [1] is more than 5 µM.
On the same count and under the same terms, the figure for `O=C(c1ncn2ccccc12)N1CCc2[nH]cnc2[C@@H]1c1nc2ccc(F)cc2s1` (single isomer, unassigned) is more than 5 µM.
With `CN(C)CCCc1nnc(C(=O)N2CCc3[nH]cnc3[C@@H]2c2nc3ccccc3s2)o1` (single isomer, unassigned), under setting [1], the concentration at half-maximal activity (AC50) is more than 5 µM.
Still for that read-out and setting: the figure for `O=C(c1cnn2c(Br)cccc12)N1CCc2[nH]cnc2[C@@H]1c1nc2ccccc2[nH]1` (single isomer, unassigned) is more than 5 µM.
Same read-out and setting: the figure for `O=C(c1nccs1)N1CCc2[nH]cnc2[C@@H]1c1nc2ccc(Cl)cc2[nH]1` (single isomer, unassigned) is more than 5 µM.
With `O=C(c1oc(-c2ccccn2)nc1C(F)(F)F)N1CCc2[nH]cnc2[C@@H]1c1nc2ccccc2s1` (single isomer, unassigned), the concentration at half-maximal activity (AC50) result under setting [3] is reported as “E, E”.
On the same count and under the same terms, the entry for `Cn1cc(-c2nc(C(F)(F)F)c(C(=O)N3CCc4[nH]cnc4[C@@H]3c3nc4ccccc4s3)o2)cn1` (single isomer, unassigned) is “E, E”; for `COCc1ccc2c(C(=O)N3CCc4[nH]cnc4[C@@H]3c3nc4ccccc4s3)c(C(F)F)nn2c1` (single isomer, unassigned) it is “E, E”.
`Cn1nc(CO)cc1C(=O)N1CCc2[nH]cnc2[C@@H]1c1nc2c(F)cccc2s1` (single isomer, unassigned): the concentration at half-maximal activity (AC50) under setting [1] is more than 5 µM.
Regarding `COC(=O)N1CC(C(=O)N2CCc3[nH]cnc3[C@@H]2c2nc3c(F)cccc3s2)C1` (single isomer, unassigned), the half-maximal activity concentration (AC50) under setting [1] was more than 5 µM.
Same read-out and setting: the figure for `Cc1nnc(CC(=O)N2CCc3[nH]cnc3[C@H]2c2nc3ccccc3[nH]2)o1` (single isomer, unassigned) is more than 5 µM; for `Cc1nnc(CC(=O)N2CCc3[nH]cnc3[C@H]2c2nc3ccccc3s2)s1` (single isomer, unassigned) it is 1 to 5 µM; for `CC(=O)N1CCc2[nH]cnc2[C@H]1c1nc2ccccc2s1` (single isomer, unassigned) it is 1 to 5 µM.
The same measure, in the same setting: the figure for `O=C(Cc1cscn1)N1CCc2[nH]cnc2[C@H]1c1nc2ccccc2s1` (single isomer, unassigned) is 1 to 5 µM; for `O=C(Cc1nncs1)N1CCc2[nH]cnc2[C@H]1c1nc2c(F)cccc2s1` (single isomer, unassigned) it is 1 to 5 µM.
On to `O=C(CCc1nccs1)N1CCc2[nH]cnc2[C@H]1c1nc2cccc(F)c2[nH]1` (single isomer, unassigned), for which the concentration at half-maximal activity (AC50) under setting [1] lay within 1 to 5 µM.
Take `Cc1nnc(N2CCc3[nH]cnc3[C@H]2c2nc3ccccc3[nH]2)o1` (single isomer, unassigned): the concentration at half-maximal activity (AC50) under setting [1] is 1 to 5 µM.
The same measure, in the same setting: the figure for `O=C(C1CN(CC(F)(F)F)C1)N1CCc2[nH]cnc2[C@H]1c1nc2ccccc2s1` (single isomer, unassigned) is 1 to 5 µM; for `Cc1nnc(N2CC(C(=O)N3CCc4[nH]cnc4[C@H]3c3nc4ccccc4s3)C2)o1` (single isomer, unassigned) it is more than 5 µM; for `Cc1c(C(=O)N2CCc3[nH]cnc3[C@H]2c2nc3c(F)cccc3s2)cnn1C` (single isomer, unassigned) it is 1 to 5 µM.
For `Cc1nc(CCC2CC2)oc1C(=O)N1CCCc2[nH]cnc2[C@H]1c1nc2ccccc2s1` (single isomer, unassigned), the concentration at half-maximal activity (AC50) under setting [1] is 1 to 5 µM.
In the case of `O=C(c1c(C(F)(F)F)nn2ccccc12)N1CCc2[nH]cnc2[C@H]1c1nc2ccccc2s1` (single isomer, unassigned), the AC50 result under setting [3] is listed as “E, E”.
For `Cn1cc(-c2cccc(C(=O)N3CCc4[nH]cnc4[C@H]3c3nc4ccccc4s3)c2)cn1` (single isomer, unassigned), the concentration at half-maximal activity (AC50) under setting [1] was 1 to 5 µM.
Still for that read-out and setting: the figure for `Cn1nc(CC#N)nc1C(=O)N1CCc2[nH]cnc2[C@H]1c1nc2ccccc2s1` (single isomer, unassigned) is 1 to 5 µM; for `CC(C)(O)c1cc(C(=O)N2CCc3[nH]cnc3[C@H]2c2nc3ccccc3s2)sn1` (single isomer, unassigned) it is 1 to 5 µM; for `O=C(N1CC[C@@H](c2ccccc2)C1)N1CCc2[nH]cnc2[C@H]1c1nc2ccccc2s1` (single isomer, unassigned) it is 1 to 5 µM.
Same read-out and setting: the figure for `c1ccc2sc([C@@H]3c4nc[nH]c4CCN3CC3CC3)nc2c1` (single isomer, unassigned) is 1 to 5 µM; for `O=C(c1cc2ccccn2c1)N1CCc2[nH]cnc2[C@H]1c1nc2ccccc2s1` (single isomer, unassigned) it is 1 to 5 µM; for `Cc1ncc(C(=O)N2CCc3[nH]cnc3[C@H]2c2nc3c(F)cccc3s2)o1` (single isomer, unassigned) it is 1 to 5 µM.
Consider `NC(=O)c1nc(-c2ccccn2)oc1C(=O)N1CCc2[nH]cnc2[C@H]1c1nc2ccccc2s1` (single isomer, unassigned), for which, under setting [3], the AC50 result is listed as “E, E”.
With `O=C(c1cnn2cccc(F)c12)N1CCc2[nH]cnc2[C@H]1c1nc2cc(F)ccc2s1` (single isomer, unassigned), the AC50 under setting [1] is 1 to 5 µM.
The same measure, in the same setting: the figure for `O=C(c1nccs1)N1CCc2[nH]cnc2[C@H]1c1nc2ccc(Cl)cc2s1` (single isomer, unassigned) is 1 to 5 µM.
Same read-out and setting: the figure for `O=C(c1cnn2ccccc12)N1CCc2[nH]cnc2[C@H]1c1nc2ccc(Cl)cc2s1` (single isomer, unassigned) is 1 to 5 µM.
The same measure, in the same setting: the figure for `CN(C)CCCc1nnc(C(=O)N2CCc3[nH]cnc3[C@H]2c2nc3ccccc3s2)o1` (single isomer, unassigned) is 1 to 5 µM; for `O=C(c1nncs1)N1CCc2[nH]cnc2[C@H]1c1nc2ccccc2[nH]1` (single isomer, unassigned) it is 1 to 5 µM; for `Cc1nnc(C(=O)N2CCc3[nH]cnc3[C@H]2c2nc3cc(Br)ccc3[nH]2)s1` (single isomer, unassigned) it is 1 to 5 µM.
Take `O=C(c1cnn2cc(Cl)ccc12)N1CCc2[nH]cnc2[C@H]1c1nc2ccc(Br)cc2[nH]1` (single isomer, unassigned): the AC50 under setting [1] lay within 1 to 5 µM.
In the case of `O=C(c1nccs1)N1CCc2[nH]cnc2[C@H]1c1nc2ccc(F)cc2[nH]1` (single isomer, unassigned), the AC50 under setting [1] was 1 to 5 µM.
For `Cc1nc(-c2ccccn2)oc1C(=O)N1CC2(CC2)c2[nH]cnc2[C@H]1c1nc2ccccc2s1` (single isomer, unassigned), the half-maximal activity concentration (AC50) under setting [1] fell in the range of 1 to 5 µM.
`c1ccc2[nH]c([C@H]3c4nc[nH]c4CCN3Cc3nccs3)nc2c1` (single isomer, unassigned) [Example 926]: under setting [4], the AC50 is more than 5 µM.
For `c1ccc2[nH]c([C@@H]3c4nc[nH]c4CCN3Cc3nccs3)nc2c1` (single isomer, unassigned) [Example 927], the AC50 under setting [4] was less than 0.5 µM.
The same measure, in the same setting: the figure for `O=C(CC1CC1(F)F)N1CCc2[nH]cnc2[C@H]1c1nc2ccccc2s1` (single isomer, unassigned) [Example 1271] is less than 0.5 µM.

One may read the AC50 as the concentration at which the activity in the assay is half-maximal.
